In article PMC3924328, “Structure of the S100A4/myosin-IIA complex” (BMC Structural Biology, 2013):
The star is where a group is joined. FITC = O=C1OC2(c3ccc(O)cc3Oc3cc(O)ccc32)c2ccc(NC(=S)*)cc21; Ahx = NCCCCCC(=O)O

How the values were obtained:
[1] = system: Ca^2+-S100A4; assay: Paramagnetic relaxation, titration with spin-labeled MIIA^1893-1923-Cys-Proxyl; format: binding, human; settings: HSQC, 37°C, pH 6.5
Description: The beads containing the immobilized TCEP and other particulates were removed using a 0.45 μm Nanosep MF GHP centrifugal device (Pall Life Sciences) before the addition of 61 μl freshly prepared 50 mg/ml 3-maleimido-Proxyl (Sigma-Aldrich) in DMSO.
(§1) HSQC NMR data were collected at 37°C with a 600 MHz (600.13 MHz for protons) Bruker DMX NMR spectrometer equipped with pulsed-field gradients, four frequency channels, and a triple resonance, z-axis gradient cryogenic probe, Data were processed with NMRPipe, and proton chemical shifts were reported with respect to the H2O or HDO signal taken as 4.658 ppm relative to external trimethylsilylpropionic acid (0.0 ppm). The ^15 N chemical shifts were indirectly referenced as described previously using the following ratio of the zero-point frequency: 0.10132905 for ^15 N to ^1H [56].

[2] = system: myosin-IIA rods (MIIA^1339−1960); assay: Promotion of disassembly assay, assembled myosin-IIA rods; format: biochemical; settings: one S100A4Δ8C dimer per myosin-IIA rod; 1.5 μM S100A4 dimer, 1.5 μM rod dimer; 20 mM Tris–HCl pH 7.5, 150 mM NaCl, 1 mM DTT, 2 mM MgCl2, 0.5 mM CaCl2, 0.02% NaN3; 2 hr, 22°C; SDS-PAGE densitometry; two independent experiments
Description: Assays comparing the ability of wild-type and the Δ8C S100A4 to depolymerize assembled myosin-IIA rods were performed as described in Li et al., using 1.5 μM S100A4 dimer and 1.5 μM myosin-IIA rod dimer in 20 mM Tris–HCl pH 7.5, 150 mM NaCl, 1 mM DTT, 2 mM MgCl2, 0.5 mM CaCl2, and 0.02% NaN3. Reaction mixtures (100 μl) were incubated for 2 hr at 22°C and then centrifuged at 80,000 rpm (175000 g) for 10 min at 25°C in a TL-100 ultracentrifuge (Beckman). Samples of the reaction mixtures and supernatants were separated on a 12% Tris-Tricine SDS-polyacrylamide gel. Coomassie-stained gels were scanned and the extent of myosin-IIA polymerization was quantified by densitometry and analyzed with the ImageQuant version 5.2.

[3] = system: myosin-IIA rods; settings: assembly-competent myosin-II rod constructs; ref [19], [20]; cited from earlier work
Source text: Each heavy chain is comprised of an N-terminal motor domain that contains the ATP- and actin-binding sites, an intermediate rod domain that dimerizes to form an α-helical coiled-coil and a C-terminal tailpiece.

[4] = target: T1, S100A4 (Homo sapiens, UniProt P26447); assay: Sedimentation velocity of MIIA^1851-1960, S100A4 and S100A4/MIIA^1851-1960 mixtures; format: physicochemical
T1 construct: heteronuclear single quantum coherence spectrum (HSQC) of full-length Ca^2+-S100A4 at 600 MHz; made in house; host or cells: E. coli, M9 medium with 15N NH4Cl (BL21(DE3)* is named for the unlabelled protein)
Description: Sedimentation equilibrium and velocity experiments were conducted at 22°C in a Beckman XL-I analytical ultracentrifuge using a Ti60 rotor and Raleigh interference optics. Wild-type S100A4 and MIIA^1851-1960 were dialyzed into 20 mM Tris pH 7.5, 150 mM KCl, 0.5 mM CaCl2, 1 mM TCEP and 0.02% NaN3 and clarified by ultracentrifugation at 80,000 rpm for 10 minutes at 4°C in TLA 120.2 rotor. Sedimentation equilibrium analysis of MIIA^1851-1960 and S100A4 was conducted in six channel centerpieces by sequentially equilibrating the protein at three concentrations for 24 hr at 12,000, 20,000 and 28,000 rpm and globally analyzing the data using HeteroAnalysis v1.1.44 (James L. Cole and Jeffrey W. Lary). The sedimentation velocity experiments were conducted at 53,000 rpm using double sector centerpieces and analyzed using DCDT + v2.4.0 [57, 58]. The best-fit parameters and their 95% joint confidence intervals are reported. The calculated masses of the wild-type S100A4 and MIIA^1851-1960 monomers are 11,597.3 and 12,397.5 Da, respectively. Values of ν-bar = 0.715 for S100A4/MIIA^851-1960 and 0.735 for S100A4, ρ = 1.0059, μ = 1.00586 cp were calculated using Sednterp v1.06 (Hayes, B., T. Laue & J. Philo, Sedimentation Interpretation Program. 2003, University of New Hampshire) from the amino acid and buffer compositions, respectively.

[5] = submicromolar concentrations; ref [4], [27], [30]; cited from earlier work
Description: Given the similarity in the molecular weights of the S100A4 and MIIA^1851-1960 dimers, the S100A4/MIIA^1851-1960 complex was further evaluated in sedimentation velocity experiments where MIIA^1851-1960 was added to S100A4 at increasing molar ratios. […] At a molar ratio of 0.5:1 MIIA^1851-1960 dimer to S100A4 dimer there was a shift in the S val ...

[6] = target: T2, S100A4Δ8C (Homo sapiens, UniProt P26447); assay: NMR titration of MIIA^1908-1923 into ^15N-labeled Ca^2+-bound S100A4Δ8C; format: binding
T2 construct: unable to crystallize the wild-type full-length S100A4 with myosin-IIA peptides; made in house; host or cells: E. coli BL21(DE3)*
Description: as §1

[7] = system: S100A4; settings: S100A4 bound to MIIA^1908-1923; ref [4]; cited from earlier work
Source text: In this regard, we examined whether this small peptide was sufficient to induce what is termed the “final folding” event that occurs upon S100 protein-target complex formation. […] As found for other wild-type and mutant S100 proteins [[6] ...

[8] = target: T2, S100A4Δ8C; assay: Fluorescence anisotropy, FITC-MIIA^1904-1927 binding to S100A4Δ8C; settings: 22°C, 5 mM EGTA, data not shown
Description: Fluorescence anisotropy measurements were performed at 22°C using a Fluoromax-3-spectrofluorometer (Jobin Yvon). Individual reactions (200 μl) contained 50 nM FITC-MIIA^1904-1927 and 0–30 μM S100A4Δ8C dimer in 20 mM Tris pH 7.5, 150 mM KCl, 1 mM DTT, 0.02% NaN3, 0.5 mM CaCl2 and 0.5 mg/ml BSA. For competition anisotropy measurements individual reactions contained 50 nM FITC-MIIA^1904-1927, 0.3 μM S100A4 dimer and 0–10 μM MIIA^1851-1960 dimer as described above. Controls included experiments representing maximum anisotropy (15 μM wild-type S100A4 and S100A4Δ8C, 50 nM FITC-MIIA^1904-1927 and calcium) and minimum anisotropy (in the absence of S100A4 and in the presence of S100A4 and 5 mM EGTA). Anisotropy was measured using excitation and emission wavelengths of 490 nm and 520 nm, respectively. Measurements were acquired at the magic angle of 55° between the vectors of polarization of the excitation and emission light using a G factor of 0.634 as determined previously for FITC on this instrument. For measurements of S100A4Δ8C binding, data from two independent experiments were plotted using Graphpad Prism v5, and the dissociation constant was calculated by fitting to a single site saturation binding equation allowing for a floating Ymin value. […]

[9] = target: S100A4; set-up: method as in PMID 18410126; settings: ref [4]; cited from earlier work
[10] = sedimentation velocity, 22°C, protein alone

T1 sequence (P26447 2-101 limits assumed, one chain of several): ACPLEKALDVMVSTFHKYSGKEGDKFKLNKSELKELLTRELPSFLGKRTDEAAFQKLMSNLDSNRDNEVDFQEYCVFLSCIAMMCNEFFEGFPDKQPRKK
T2 sequence (P26447 2-93, stated change not applied): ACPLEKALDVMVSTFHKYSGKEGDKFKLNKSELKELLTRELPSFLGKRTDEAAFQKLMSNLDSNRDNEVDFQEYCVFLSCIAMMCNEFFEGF

For “MIIA^1893-1923-Cys-Proxyl: MIIA^1893-1923-Cys labeled with 3-maleimido-Proxyl spin label”, the “Residues with large reductions in cross-peak intensities” value ([1]; 2.6 μM spin-labeled peptide) was “loop 1 (Asp25), the beginning of helix 3 (Asp51, Glu52) and in the C-terminal loop (Lys100)” and the “Location of peptide C-terminus on S100A4 by paramagnetic relaxation” value ([1]; 2.6 and 5.3 μM spin-labeled peptide) was “near residues in helix 3 and the hinge (Leu46, Gly47, Asp51, Glu52”.

With “S100A4Δ8C: S100A4 deletion mutant (deletion of the C-terminal eight amino acids)” the Myosin-IIA filaments disassembled [2] was “approximately 85%”.

In the case of “S100A4: untagged, full-length human S100A4”, the Myosin-II isoform preference [3] is given as “preferentially recognizes and disassembles myosin-IIA rods”, the “Effect of S100A4 binding on dimeric myosin-IIA construct” value ([4]; longer, dimeric myosin-IIA construct) is given as “dissociates the two myosin-IIA polypeptide chains to form a complex composed of one S100A4 dimer and a single myosin-IIA polypeptide chain” and the “Peak 1 S20,w” value ([4]; sedimentation velocity, 22°C, 53,000 rpm, protein alone, 20 mM Tris pH 7.5, 150 mM KCl, 0.5 mM CaCl2, 1 mM TCEP, 0.02% NaN3) is given as 1.90 ± 0.01. For the same substance, the “Peak 1 MW” value [4, 10] was 21.2 ± 0.3 kDa, the S value [4, 10] was 1.9 S and the “[Peak 1] (green), relative amount of plateau concentrations” value [4, 10] was 2.00 ± 0.02. For the same substance, the Dimer stability [5] was “thermostable dimer at submicromolar concentrations”.

In the case of “Ace-DAMNREVSSLKNKLRR-CONH2 [MIIA^1908-1923]”, the “Binding orientation to S100A4Δ8C versus wild-type S100A4” value ([6]; 37°C, pH 6.5, 10 mM CaCl2) is given as “very similar structure/orientation in solution as observed for wild-type S100A4”, the “Exchange broadening of Ca^2+-bound S100A4Δ8C upon complex formation” value ([6]; data not shown) is given as “exchange broadening completely disappeared” and the “Ca^2+-binding affinity of S100A4 when peptide bound” value [7] is given as “higher Ca^2+-binding affinity”.

In the case of “{FITC-Ahx}-TETADAMNREVSSLKNKLRRGDLP-NH2 [FITC-MIIA^1904-1927]”, the “Binding to S100A4Δ8C in the presence of EGTA” value [8] is reported as “no binding was observed”.

For “Ac-RRKLQRELEDATETADAMNREVSSLKNKLRR-CONH2 [MIIA^1893-1923]”, the “Dissociation constant, in words” value [9] is given as “in the nanomolar range”.
